Source: paper PMC8745124, “The Potential Antimicrobial Action of Human Mucin 7 15-Mer Peptide and Its Metal Complexes” (International Journal of Molecular Sciences, 2021)
Values after ≈ are worked out from the molar mass of the structure shown. Like-named read-outs stand apart in the source and are kept apart here. No end group written: not given here.

Assays:
[1] = system: E. faecalis; conditions: Table S7, cited from earlier work
Source text: (§1) Values are the average of three independent experiments performed in three wells.

[2] = system: E. coli; conditions: Table S7, cited from earlier work
Procedure: (§2) page 13: Table S5. Experimentally measured molar extinction coefficients (ε) and absorbance maxima (λmax) for L1, L2 and L3 which concentration was determined by UV-Vis. Solvent HEPES buffer (50 mM. I = 0.16 M).Path length = 1 cm.T = 25°C. λmax [nm] ε [M-1cm-1] L1 275.5 1076 L2 280 1062 L3 275.5 1077 Table S6. Antimicrobial activity of the […] (L1), […] (L2) and […] (L3) and their metal(II) complexes against pathogenic microorganisms. Values are the average of three independent experiments performed in three wells. Ligands/ E. faecalis S. epidermidis E. coli ...

[3] = system: P. aeruginosa; conditions: Table S7, cited from earlier work
Procedure: as §2

[4] = system: C. albicans; parameters: method as in 2 sources, one per row (each row's own in cited_ref): ref [33] (a number printed in a supplementary file, which may have a reference list of its own: not looked up in the article's list) ||| ref [36] (a number printed in a supplementary file, which may have a reference list of its own: not looked up in the article's list); conditions: Table S7; ref [36]; cited from earlier work
Source text: as §1

[5] = system: E. faecalis ATCC 29212; assay type: cell-based, Enterococcus faecalis; conditions: ATCC 29212, 24 h
Procedure: (§3) The antimicrobial properties of three peptides (L1, L2, L3) and metal(II) complexes (molar ratio, 1:1) were tested on human pathogenic strains. E. coli ATCC 25922, E. faecalis ATCC 29212, P. aeruginosa ATCC 15422, and S. epidermidis KCTC 1917 were grown at 37 °C in Luria Bertani Broth (LB; 10 g/L bacto-tryptone, 5 g/L bacto-yeast extract, 10 g/L NaCl). The C. albicans […] was grown in a 6.7 g/L yeast nitrogen base (YNB) broth (Difco Laboratories) containing 2% D-glucose at 37 °C. The minimum inhibitory concentration (MIC) values of the peptides and their metal(II) complexes were determined using the microdilution broth method in 96-well microplates (Sarstedt, Nümbrecht, Germany). The serial dilutions of tested compounds (0–500 µM) were dissolved in LB medium for bacteria and YNB medium for C. albicans. The inoculum (2.5 µL) of each strain (10^8 CFU mL^−1) was placed into each well containing 200 µL of serial dilutions of the tested peptides and their metal(II) complexes. […] Bacteria and C. albicans incubated with metal ions were used as additional controls. After 24 h of incubation at 37 °C, the optical density at 600 nm of each well was measured using a multifunctional microplate reader (Synergy™ H1, BioTek, Winooski, VT, USA).

[6] = system: S. epidermidis KCTC 1917; assay type: cell-based, Staphylococcus epidermidis; conditions: KCTC 1917, 24 h
Procedure: as §3

[7] = system: E. coli ATCC 25922; assay type: cell-based, Escherichia coli; conditions: ATCC 25922, 24 h
Procedure: as §3

[8] = system: P. aeruginosa ATCC 15422; assay type: cell-based, Pseudomonas aeruginosa; conditions: ATCC 15422, 24 h
Procedure: as §3

[9] = system: C. albicans ATCC 10231; assay type: cell-based, Candida albicans; conditions: ATCC 10231, 24 h
Procedure: as §3

[10] = assay type: physicochemical
Source text: Distribution profiles for Cu(II) and Zn(II) complexes calculated based on titrations are depicted in Figure 1. Complexes of L1 with Zn(II) were precipitated in the experimental concentration used for potentiometry above pH 9, while for L2 and L3 complexes were insoluble above pH 7. For copper complexes, precipitation was not observed at any experimental pH value.
Based on the experimental curves, it was possible to determine stability constants only for some complex species (ZnH3L and ZnHL for L2 and ZnH4L, ZnH3L and ZnHL for L3 ligand). […] Based on the competition diagram, Figure 3A, it could be assumed that all His residues are involved in the coordination of the Zn(II) ion directly or indirectly through the steric effect. The L3 ligand has the best affinity to metal ions already in an acidic environment and throughout the range of the tested pH. […] It could be concluded that although L1 and L2 have the same number of histidyl residues, their mutual position affects the effectiveness of metal ion binding at a given pH value. Above pH 6.5, L1 binds the Zn(II) with higher stability than that observed for L2.
Zinc complexes were not soluble above pH 9 and 7 for L1 and L2, L3, respectively. It was surprising that upon contact with the […] n-octanol phase, Zn(II)/L1 complexes formed in the water were precipitated, which prevented further measurement of the partition coefficient logPo/w. This undoubtedly proves the hydrophilic nature of Zn (II)/L1 complexes. In the case of zinc complexes of the remaining ligands, no precipitate was observed, so experimental values of logPo/w were determined. In comparison to free ligands, the lipophilicity of Cu(II) complexes is lower for all studies’ systems. For L2 and L3, and their Zn(II) complex forms, we observed a slight difference in the partition coefficient concerning the ligands themselves, a slight decrease in lipophilicity in the case of Zn(II)/L2 complexes, and an increase in the case of Zn(II)/L3. […]

[11] = target: His14 (position 14, YGLLAHQ----); assay: potentiometry; conditions: 25 ± 0.2 °C (298 K), I = 0.1 M (KCl), none (HCl/KOH titration under Ar)
[12] = target: His8 (position 8, …); assay: potentiometry; conditions: 25 ± 0.2 °C (298 K); I = 0.1 M (KCl); none (HCl/KOH titration under Ar); free peptide, no metal; ligand 1.0 × 10^-3 M (the Table 2 caption says 0.0005 M)
[13] = target: Lys1 (position 1, -----KSAFEL); assay: potentiometry; conditions: 25 ± 0.2 °C (298 K), I = 0.1 M (KCl), none (HCl/KOH titration under Ar)
[14] = target: Nterm1 (position 1, -----KSAFEL); assay: potentiometry; conditions: 25 ± 0.2 °C (298 K); I = 0.1 M (KCl); none (HCl/KOH titration under Ar); free peptide, no metal; ligand 1.0 × 10^-3 M (the Table 2 caption says 0.0005 M)
[15] = target: Tyr9 (position 9, …); assay: potentiometry; conditions: 25 ± 0.2 °C (298 K), I = 0.1 M (KCl), none (HCl/KOH titration under Ar)
[16] = target: His3 (position 3, ---KSHFELPA); assay: potentiometry; conditions: 25 ± 0.2 °C (298 K); I = 0.1 M (KCl); none (HCl/KOH titration under Ar); free peptide, no metal; ligand 1.0 × 10^-3 M (the Table 2 caption says 0.0005 M)
[17] = target: Lys1 (position 1, -----KSHFEL); assay: potentiometry; conditions: 25 ± 0.2 °C (298 K), I = 0.1 M (KCl), none (HCl/KOH titration under Ar)
[18] = target: Nterm1 (position 1, -----KSHFEL); assay: potentiometry; conditions: 25 ± 0.2 °C (298 K); I = 0.1 M (KCl); none (HCl/KOH titration under Ar); free peptide, no metal; ligand 1.0 × 10^-3 M (the Table 2 caption says 0.0005 M)
[19] = target: Tyr9 (position 9, …); assay: potentiometry; conditions: 25 ± 0.2 °C (298 K), I = 0.1 M (KCl), none (HCl/KOH titration under Ar); remark: listed apart in the source
[20] = target: His3 (position 3, ---KSHFELPH); assay: potentiometry; conditions: 25 ± 0.2 °C (298 K); I = 0.1 M (KCl); none (HCl/KOH titration under Ar); free peptide, no metal; ligand 1.0 × 10^-3 M (the Table 2 caption says 0.0005 M)
[21] = target: His8 (position 8, …); assay: potentiometry; conditions: 25 ± 0.2 °C (298 K); I = 0.1 M (KCl); none (HCl/KOH titration under Ar); free peptide, no metal; ligand 1.0 × 10^-3 M (the Table 2 caption says 0.0005 M); remark: listed apart in the source
[22] = free peptide, no metal, ligand 1.0 × 10^-3 M (the Table 2 caption says 0.0005 M)
[23] = Cu(II)-bound mononuclear complex (4N coordination), metal:ligand 1:1.1 and 1:2

CNC(C)C1CCC(N)C(OC2C(N)CC(N)C(OC3OCC(C)(O)C(NC)C3O)C2O)O1 (stereo not shown) [Gentamicin]
MIC ([1]; ref [33]): ≥ 2.50 µg/mL | MIC ([2]; ref [33]): ≥ 2.50 µg/mL | MIC ([3]; ref [33]): 0.31 µg/mL (≈ 0.649 µM)

Polymyxin
MIC ([1]; ref [34]): > 16 µg/mL | MIC ([2]; ref [34]): 1 µg/mL | MIC ([3]; ref [34]): 1 µg/mL

Clavanin D
MIC ([1]; ref [36]): 128 µg/mL | MIC ([2]; ref [36]): 64 µg/mL | MIC [4]: 16 µg/mL

KSHFELPAYGLLAHQ [L2]
MIC [5]: 163 ± 2.2 µM | MIC [6]: 147 ± 1.6 µM | MIC [7]: 416 ± 0.5 µM | MIC [8]: 302 ± 2.8 µM | MIC [9]: 469 ± 1.4 µM | solubility in water [10]: soluble in water

O=C(O)c1cn(C2CC2)c2cc(N3CCNCC3)c(F)cc2c1=O [Ciprofloxacin]
MIC ([2]; ref [33]): 0.08 µg/mL (≈ 0.241 µM) | MIC ([3]; ref [33]): 0.16 µg/mL (≈ 0.483 µM)

KSAFELPHYGLLAHQ [L1]
MIC [5]: 145 ± 3.1 µM | MIC [6]: 132 ± 1.6 µM | MIC [7]: 412 ± 2.4 µM | MIC [8]: 285 ± 2.6 µM | MIC [9]: 436 ± 2.4 µM | solubility in water [10]: soluble in water

Gramicidin S
MIC ([1]; ref [35]): 6.25 µg/mL | MIC ([2]; ref [35]): 50 µg/mL | MIC ([3]; ref [35]): 50 µg/mL

KSHFELPHYGLLAHQ [L3]
MIC [5]: 241 ± 1.6 µM | MIC [6]: 210 ± 2.6 µM | MIC [7]: > 888 µg/mL | MIC [8]: 313 ± 2.5 µM | MIC [9]: > 888 µg/mL | solubility in water [10]: soluble in water

Clavanin B
MIC ([1]; ref [36]): 256 µg/mL | MIC ([2]; ref [36]): 256 µg/mL | MIC [4]: 64 µg/mL

KSAFELPHYGLLAHQ [MUC7 15-mer peptide analogue L1 (KSAFELPHYGLLAHQ) (Homo sapiens (synthetic peptide); H3A)]
pKa [11, 22]: 6.62 | pKa [12]: 5.98 | pKa [13, 23]: 10.86 | pKa [13, 22]: 9.92 | pKa [14]: 7.59 | pKa [15, 23]: 9.61 | pKa [15, 22]: 9.44

KSHFELPAYGLLAHQ [MUC7 15-mer peptide analogue L2 (KSHFELPAYGLLAHQ) (Homo sapiens (synthetic peptide); H8A)]
pKa [11, 23]: 6.46 | pKa [11, 22]: 6.72 | pKa [16]: 5.62 | pKa [17, 23]: 10.06 | pKa [17, 22]: 10.50 | pKa [18]: 7.42 | pKa [19, 23]: 9.43 | pKa [19, 22]: 9.58

KSHFELPHYGLLAHQ [MUC7 15-mer peptide L3 (KSHFELPHYGLLAHQ, mother peptide) (Homo sapiens (synthetic peptide))]
pKa [11, 22]: 6.75 | pKa [20]: 5.40 | pKa [21]: 6.34 | pKa [17, 23]: 9.85 | pKa [17, 22]: 10.01 | pKa [18]: 7.36 | pKa [15, 23]: 9.62 | pKa [15, 22]: 9.35
